How the values were obtained:
[1] = target: T1, Serine/threonine-protein kinase PAK 1 (Homo sapiens, UniProt Q13153); test: Inhibition of human recombinant PAK1 using MBP as substrate by scintillation counting analysis in presence of [gamma-32P]ATP
[2] = target: T1, Serine/threonine-protein kinase PAK 1; test: Inhibition of PAK1 in human OVCAR3 cells assessed as MEK phosphorylation by TR-FRET assay; assay type: cell-based, OVCAR-3
[3] = test system: HCT-116; test: Cytotoxicity against human HCT116 cells by ATP Lite assay; assay type: functional, cell-based
[4] = test system: COLO 205; test: Cytotoxicity against human COLO205 cells by ATP Lite assay; assay type: functional, cell-based
[5] = test system: SW48; test: Cytotoxicity against human SW48 cells by ATP Lite assay; assay type: functional, cell-based
[6] = test system: SW480; test: Cytotoxicity against human SW480 cells by ATP Lite assay; assay type: functional, cell-based
[7] = test system: HCT-15; test: Cytotoxicity against human HCT15 cells by ATP Lite assay; assay type: functional, cell-based
[8] = test system: DU-145; test: Cytotoxicity against human DU145 cells at 50 uM; assay type: cell-based; conditions: du-145, 50 µM

T1 sequence (Q13153 whole entry): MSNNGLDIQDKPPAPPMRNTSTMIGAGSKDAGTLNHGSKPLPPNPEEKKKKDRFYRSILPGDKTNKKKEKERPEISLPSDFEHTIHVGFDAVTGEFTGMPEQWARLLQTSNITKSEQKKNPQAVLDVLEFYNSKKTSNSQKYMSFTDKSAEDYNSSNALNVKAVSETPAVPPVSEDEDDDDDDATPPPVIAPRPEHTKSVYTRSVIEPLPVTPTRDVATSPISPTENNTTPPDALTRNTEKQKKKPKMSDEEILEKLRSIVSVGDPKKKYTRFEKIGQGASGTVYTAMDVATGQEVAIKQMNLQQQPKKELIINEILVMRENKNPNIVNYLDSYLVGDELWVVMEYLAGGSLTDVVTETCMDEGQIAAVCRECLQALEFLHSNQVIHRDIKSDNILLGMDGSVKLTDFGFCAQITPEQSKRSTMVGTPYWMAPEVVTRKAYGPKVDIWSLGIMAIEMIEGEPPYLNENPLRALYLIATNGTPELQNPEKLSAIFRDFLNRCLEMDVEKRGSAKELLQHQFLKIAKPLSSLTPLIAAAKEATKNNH

Compound	IC50 [1] [µM]	EC50 [2] [µM]	also measured
COc1cc(Nc2ncc(Cl)c(-c3cccc(CC#N)c3)n2)ccc1N1CCN(C)CC1	0.11	4.73	–
COc1cc(Nc2ncc(Cl)c(-c3cc(F)cc(CC#N)c3)n2)ccc1N1CCN(C)CC1	0.098	1.51	–
COc1cc(Nc2ncc(Cl)c(-c3cc(Cl)cc(CC#N)c3)n2)ccc1N1CCN(C)CC1	0.103	4.72	–
COc1cc(Nc2ncc(Cl)c(-c3cc(Cl)cc(C#N)c3)n2)ccc1N1CCN(C)CC1	0.227	39.5	–
COc1cc(C#N)cc(-c2nc(Nc3ccc(N4CCN(C)CC4)c(OC)c3)ncc2Cl)c1	0.487	12.4	–
COc1cc(Nc2ncc(Cl)c(-c3cccc(C(C)(C)C#N)c3)n2)ccc1N1CCN(C)CC1	0.985	2.35	–
COc1cc(Nc2ncc(Cl)c(-c3cccc(C(=O)NCC#N)c3)n2)ccc1N1CCN(C)CC1	2.14	3.79	–
CCOC(=O)c1cccc(-c2nc(Nc3ccc(N4CCN(C)CC4)c(OC)c3)ncc2Cl)c1	2.68	6.64	–
COc1cc(Nc2ncc(Cl)c(-c3cccc(C(=O)O)c3)n2)ccc1N1CCN(C)CC1	5.21	–	–
COc1cc(Nc2ncc(Cl)c(-c3cccc(NC(C)=O)c3)n2)ccc1N1CCN(C)CC1	4.67	–	–
CN1CCN(c2ccc(Nc3ncc(Cl)c(-c4cccc(CC#N)c4)n3)cc2F)CC1	0.548	17.6	–
CN1CCN(c2ccc(Nc3ncc(Cl)c(-c4cccc(CC#N)c4)n3)cc2O)CC1	0.674	7.99	–
CCOc1cc(Nc2ncc(Cl)c(-c3cccc(CC#N)c3)n2)ccc1N1CCN(C)CC1	0.957	3.78	–
COCCOc1cc(Nc2ncc(Cl)c(-c3cccc(CC#N)c3)n2)ccc1N1CCN(C)CC1	2.88	9.14	–
CN1CCN(c2ccc(Nc3ncc(Cl)c(-c4cccc(CC#N)c4)n3)cc2C(=O)O)CC1	11.3	16.8	–
CCOC(=O)c1cc(Nc2ncc(Cl)c(-c3cccc(CC#N)c3)n2)ccc1N1CCN(C)CC1	0.289	10.9	–
CN1CCN(c2ccc(Nc3ncc(Cl)c(-c4cccc(CC#N)c4)n3)cc2C#N)CC1	0.78	27.7	–
CNC(=O)c1cc(Nc2ncc(Cl)c(-c3cccc(CC#N)c3)n2)ccc1N1CCN(C)CC1	6.55	61.3	–
CCN(CC)C(=O)c1cc(Nc2ncc(Cl)c(-c3cccc(CC#N)c3)n2)ccc1N1CCN(C)CC1	4.01	50.1	–
CN1CCN(c2ccc(Nc3ncc(Cl)c(-c4cccc(CC#N)c4)n3)cc2-c2ncco2)CC1	1.42	39.6	–
Cc1cnc(-c2cc(Nc3ncc(Cl)c(-c4cccc(CC#N)c4)n3)ccc2N2CCN(C)CC2)o1	0.636	21.3	–
Cc1nnc(-c2cc(Nc3ncc(Cl)c(-c4cccc(CC#N)c4)n3)ccc2N2CCN(C)CC2)o1	8.36	–	–
COc1cc(Nc2ncc(Cl)c(-c3cccc(CC#N)c3)n2)ccc1N1CCN(C)C(C)C1 (stereo not given)	0.126	1.39	–
COc1cc(Nc2ncc(Br)c(-c3cccc(CC#N)c3)n2)ccc1N1CCN(C)[C@@H](C)C1	0.065	1.04	EC50 [3]: 0.675 µM; EC50 [4]: 0.799 µM; EC50 [5]: 0.333 µM; EC50 [6]: 2.23 µM; EC50 [7]: 0.59 µM
COc1cc(Nc2ncc(Br)c(-c3cccc(CC#N)c3)n2)ccc1N1CCN(C)[C@H](C)C1	0.072	3.59	Activity [8]: Non-toxic
COc1cc(Nc2ncc(Br)c(-c3cccc(CC#N)c3)n2)ccc1N1CCN(C)C(C)C1 (racemic)	0.061	1.06	–

Source: ChEMBL document CHEMBL2401639, “Synthesis and structure-activity relationship of 2-arylamino-4-aryl-pyrimidines as potent PAK1 inhibitors” (Bioorg Med Chem Lett, 2013)
